{"source": "patent US7915293B2", "about": "“Ubiquitin ligase inhibitors” (Rigel Pharmaceuticals, Inc., priority 2003, dated 2011)", "data": [{"target": "E3 (His-APC11/APC2-\"APC\") (Homo sapiens, UniProt Q9NYG5+Q9UJX6)", "sequence (Q9NYG5 whole entry)": "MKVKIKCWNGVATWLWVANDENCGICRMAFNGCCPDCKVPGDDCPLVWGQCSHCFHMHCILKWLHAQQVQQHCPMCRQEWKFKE", "sequence (Q9UJX6 whole entry)": "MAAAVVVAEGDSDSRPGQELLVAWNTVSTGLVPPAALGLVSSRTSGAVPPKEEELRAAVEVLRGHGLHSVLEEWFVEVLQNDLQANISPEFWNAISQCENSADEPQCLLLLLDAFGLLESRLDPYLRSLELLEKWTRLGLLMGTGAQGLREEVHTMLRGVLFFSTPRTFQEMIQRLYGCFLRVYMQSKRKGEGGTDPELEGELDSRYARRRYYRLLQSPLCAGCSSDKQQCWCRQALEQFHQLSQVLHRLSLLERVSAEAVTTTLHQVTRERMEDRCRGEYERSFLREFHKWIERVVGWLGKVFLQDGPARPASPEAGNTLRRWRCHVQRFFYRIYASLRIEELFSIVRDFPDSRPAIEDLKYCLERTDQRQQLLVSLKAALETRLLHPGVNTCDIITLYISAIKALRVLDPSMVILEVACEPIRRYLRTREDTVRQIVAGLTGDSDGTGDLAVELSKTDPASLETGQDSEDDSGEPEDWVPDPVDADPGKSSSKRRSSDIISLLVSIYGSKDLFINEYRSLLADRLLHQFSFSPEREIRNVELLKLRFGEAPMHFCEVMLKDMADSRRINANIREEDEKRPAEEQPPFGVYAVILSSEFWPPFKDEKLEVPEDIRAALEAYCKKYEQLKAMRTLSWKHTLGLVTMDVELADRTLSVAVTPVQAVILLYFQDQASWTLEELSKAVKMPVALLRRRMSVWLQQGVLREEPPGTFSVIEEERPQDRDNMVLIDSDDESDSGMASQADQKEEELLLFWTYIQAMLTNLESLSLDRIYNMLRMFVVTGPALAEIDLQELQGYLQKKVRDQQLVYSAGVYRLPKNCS", "experiment": "Plate-based E3 ligase assay (APC FLAG), auto-ubiquitination", "assay_type": "biochemical", "parameters": "key: “+” indicates that the compound exibits inhibitory activity; “−” indicates that low or no inhibitory activity was observed", "conditions": "2 concentrations tested", "description": "(§1) E3 (His-APC11/APC2-“APC”) auto-ubiquitination was measured as described in U.S. patent application Ser. No. 09/826,312 (Publication No. US-2002-0042083-A1), which is incorporated herein in its entirety. Details of the protocol are described below. Activity in the presence of the compound was determined relative to a parallel control in which only DMSO was added. Values of the IC50 were typically determined using 6 or 8 different concentrations of the compound, although as few as 2 concentrations may be used to approximate the IC50 value.\n(§2) Nickel-coated 96-well plates (Pierce 15242) were blocked for 1 hour with 100 μl of blocking buffer at room temperature. The plates were washed 4 times with 225 μl of 1×PBS and 80 μl of the reaction buffer were added that contained 100 ng/well of Flag-ubiquitin. To this, 10 μl of the test compound diluted in DMSO were added. After the test compound was added, 10 μl of E1 (human), E2 (Ubch5c), and APC in Protein Buffer was added to obtain a final concentration of 5 ng/well of E1, 20 ng/well of E2 and 100 ng/well of APC. The plate were shaken for 10 minutes and incubated at room temperature for 1 hour. After incubation, the plates were washed 4 times with 225 μl of 1×PBS and 100 μl/well of Antibody Mix were added to each well. The plates were incubate at room temperature for another hour after which they were washed 4 times with 225 μl of 1×PBS and 100 μl/well of Lumino substrate were added to each well. The luminescence was measured by using a BMG luminescence microplate reader.\n(§3) To prepare the Blocking Buffer (1 liter; 1% Casein in 1×PBS), 10 grams of Casein (Hammersten Grade Casein from Gallard-Schlesinger Inc. #440203) were placed into 1 liter of 1×PBS, stirred on a hot plate and kept between 50-60° C. for an hour. The buffer was allowed to cool to room temperature and then filtered using a Buchner Funnel (Buchner filter funnel 83 mm 30310-109) and Whatman filter paper (Whatman Grade No. 1 Filter paper 28450-070). It was stored at 4° C. until used.\n(§4) The reaction buffer consisted of 62.5 mM Tris pH 7.6 (Trizma Base—Sigma T-8524), 3 mM MgCl2 (Magnesium Chloride—Sigma M-2393), 1 mM DTT (Sigma D-9779), 2.5 mM ATP (Roche Boehringer Mann Corp. 635-316), 100 ng/well of Flag-ubiquitin, 0.1% BSA (Sigma A-7906), and 0.05% Tween-20 (Sigma P-7949).\n(§5) The Protein Buffer consisted of 20 mM Tris pH 7.6, 10% glycerol (Sigma G-5516) and 1 mM DTT.\n(§6) The antibody mix consisted of 0.25% BSA (Sigma A-7906) in 1×PBS, 1/50,000 anti-Flag (Sigma F-3165), 1/100,000 of anti-Mouse IgG-HRP (Jackson Immunoresearch #115-035-146).\n(§7) The substrate mix consisted of SuperSignal Substrate from Pierce (catalog number 37070ZZ) and was prepared by mixing 100 ml of the peroxide solution, 100 ml of the enhancer solution and 100 ml of Milli-Q® water.", "values": [{"compound": "Cc1c(Cl)cccc1NS(=O)(=O)c1ccc(Oc2ccc(F)cc2)cc1", "note": "[Example 188, N-(3-chloro-2-methylphenyl)-4-(4-fluoro-phenoxy)benzenesulfonamide]", "APC Flag (2 pt)": "− (2 pt)"}, {"compound": "O=S(=O)(Nc1ccc(F)c(Cl)c1)c1ccc(Oc2ccc(F)cc2)cc1", "note": "[Example 189, N-(3-chloro-4-fluorophenyl)-4-(4-fluoro-phenoxy)benzenesulfonamide]", "APC Flag (2 pt)": "− (2 pt)"}, {"compound": "CN(c1cc(Cl)cc(Cl)c1)S(=O)(=O)c1cc(Cl)c(Oc2ccc([N+](=O)[O-])cc2Cl)c(Cl)c1", "note": "[Example 190, 3,5-dichloro-4-(2-chloro-4-nitrophenoxy)-N-(3,5-dichlorophenyl)-N-methylbenzene-sulfonamide]", "APC Flag (2 pt)": "− (2 pt)"}, {"compound": "Cc1c(Cl)cccc1NS(=O)(=O)c1ccc(Oc2ccc(Cl)cc2)cc1", "note": "[Example 194, N-(3-chloro-2-methylphenyl)-4-(4-chloro-phenoxy)benzenesulfonamide]", "APC Flag (2 pt)": "− (2 pt)"}, {"compound": "O=S(=O)(Nc1ccc(F)c(Cl)c1)c1ccc(Oc2ccc(Cl)cc2)cc1", "note": "[Example 195, N-(3-chloro-4-fluorophenyl)-4-(4-chloro-phenoxy)benzenesulfonamide]", "APC Flag (2 pt)": "− (2 pt)"}, {"compound": "O=S(=O)(Nc1cccc(Br)c1)c1ccc(Oc2ccc(Cl)cc2)cc1", "note": "[Example 196, N-(3-bromophenyl)-4-(4-chlorophenoxy) benzenesulfonamide]", "APC Flag (2 pt)": "− (2 pt)"}, {"compound": "CC(C)c1ccccc1NS(=O)(=O)c1cc(Cl)c(Oc2ccc([N+](=O)[O-])cc2Cl)c(Cl)c1", "note": "[Example 227, 3,5-dichloro-4-(2-chloro-4-nitrophenoxy)-N-(2-isopropylphenyl)benzenesulfonamide]", "APC Flag (2 pt)": "− (2 pt)"}]}, {"target": "E3 (His-APC11/APC2-\"APC\") (Homo sapiens, UniProt Q9NYG5+Q9UJX6)", "experiment": "Plate-based E3 ligase assay (APC FLAG), auto-ubiquitination", "assay_type": "biochemical", "parameters": "key: “+” indicates that the compound exibits inhibitory activity; “−” indicates that low or no inhibitory activity was observed", "conditions": "8 concentrations tested", "description": "as §1, §2, §3, §4, §5, §6, §7", "values": [{"compound": "O=[N+]([O-])c1ccc(Oc2c(Cl)cc(S(=O)(=O)Nc3ccc(F)c(F)c3)cc2Cl)c(Cl)c1", "note": "[Example 197, 3,5-dichloro-4-(2-chloro-4-nitrophenoxy)-N-(3,4-difluorophenyl)benzenesulfonamide]", "APC Flag 8 pt": "+"}, {"compound": "Cc1ccc(NS(=O)(=O)c2cc(Cl)c(Oc3ccc([N+](=O)[O-])cc3Cl)c(Cl)c2)cc1F", "note": "[Example 198, 3,5-dichloro-4-(2-chloro-4-nitrophenoxy)-N-(3-fluoro-4-methylphenyl)benzene-sulfonamide]", "APC Flag 8 pt": "+"}, {"compound": "N=C(Nc1ccc(Cl)cc1)NS(=O)(=O)c1cc(Cl)c(Oc2ccc([N+](=O)[O-])cc2Cl)c(Cl)c1", "note": "[Example 211, 3,5-dichloro-4-(2-chloro-4-nitrophenoxy)-N-[[(4-chlorophenyl)amino](imino)methyl] benzenesulfonamide]", "APC Flag 8 pt": "+"}, {"compound": "N=C(NS(=O)(=O)c1cc(Cl)c(Oc2ccc([N+](=O)[O-])cc2Cl)c(Cl)c1)c1ccccc1", "note": "[Example 212, N-{[3,5-dichloro-4-(2-chloro-4-nitro-phenoxy)phenyl]sulfonyl}benzene-carboximidamide]", "APC Flag 8 pt": "−"}, {"compound": "N=C(Nc1nc2ccccc2[nH]1)NS(=O)(=O)c1cc(Cl)c(Oc2ccc([N+](=O)[O-])cc2Cl)c(Cl)c1", "note": "[Example 225, N-[(1H-benzimidazol-2-ylamino)(imino)methyl]-3,5-dichloro-4-(2-chloro-4-nitro-phenoxy)benzenesulfonamide]", "APC Flag 8 pt": "+"}, {"compound": "O=[N+]([O-])c1ccc(Oc2c(Cl)cc(S(=O)(=O)Nc3cc(Cl)cnc3Cl)cc2Cl)c(Cl)c1", "note": "[Example 233, 3,5-dichloro-4-(2-chloro-4-nitrophenoxy)-N-(2,5-dichloropyridin-3-yl)benzene-sulfonamide]", "APC Flag 8 pt": "+"}, {"compound": "O=[N+]([O-])c1ccc(Oc2c(Cl)cc(S(=O)(=O)Nc3cccc(F)c3F)cc2Cl)c(Cl)c1", "note": "[Example 239, 3,5-dichloro-4-(2-chloro-4-nitrophenoxy)-N-(2,3-difluorophenyl)benzenesulfonamide]", "APC Flag 8 pt": "+"}, {"compound": "Cc1ccc(S(=O)(=O)Nc2ccc(Oc3c([N+](=O)[O-])cc(C(F)(F)F)cc3[N+](=O)[O-])c(Cl)c2)cc1", "note": "[Example 247, N-{3-chloro-4-[2,6-dinitro-4-(trifluoro-methyl)phenoxy]phenyl}-4-methylbenzene-sulfonamide]", "APC Flag 8 pt": "+"}, {"compound": "O=[N+]([O-])c1cc(C(F)(F)F)cc([N+](=O)[O-])c1Oc1ccc(NS(=O)(=O)c2ccc(Cl)cc2)cc1Cl", "note": "[Example 248, 4-chloro-N-{3-chloro-4-[2,6-dinitro-4-(tri-fluoromethyl)phenoxy]phenyl}benzene-sulfonamide]", "APC Flag 8 pt": "−"}, {"compound": "O=[N+]([O-])c1ccc(F)c(NS(=O)(=O)c2ccc(Oc3ccc([N+](=O)[O-])cc3C(F)(F)F)c(Cl)c2)c1", "note": "[Example 260, 3-chloro-N-(2-fluoro-5-nitrophenyl)-4-[4-nitro-2-(trifluoromethyl)phenoxy]benzene-sulfonamide]", "APC Flag 8 pt": "+"}, {"compound": "CC(=O)N(C(C)=O)c1ccc(Oc2c(Cl)cc(S(=O)(=O)Nc3cccc(Cl)c3)cc2Cl)c(Cl)c1", "note": "[Example 280, N-acetyl-N-[3-chloro-4-(2,6-dichloro-4-{[(3-chlorophenyl)amino]sulfonyl}phenoxy)phenyl]acetamide]", "APC Flag 8 pt": "+"}, {"compound": "O=[N+]([O-])c1ccc(Oc2c(Cl)cc(S(=O)(=O)Nc3cc(OC(F)(F)F)ccc3Br)cc2Cl)c(Cl)c1", "note": "[Example 293, N-(2-bromo-5-(trifluoromethoxy)phenyl)-3,5-dichloro-4-(2-chloro-4-nitrophenoxy)benzenesulfonamide]", "APC Flag 8 pt": "+"}, {"compound": "O=C(Nc1cc(C(F)(F)F)ccc1Cl)N1CCC(Oc2ccccc2C(F)(F)F)CC1", "note": "[Example 307, N-(2-chloro-5-(trifluoromethyl)phenyl)-4-(2-(trifluoromethyl)phenoxy)piperidine-1-carboxamide]", "APC Flag 8 pt": "−"}, {"compound": "O=C(Nc1cc(Cl)ccc1Cl)N1CCC(Oc2ccccc2C(F)(F)F)CC1", "note": "[Example 308, N-(2,5-dichlorophenyl)-4-(2-(trifluoromethyl)phenoxy)piperidine-1-carboxamide]", "APC Flag 8 pt": "−"}, {"compound": "O=C(Nc1cc(C(F)(F)F)ccc1Cl)N1CCC(Oc2ncccn2)CC1", "note": "[Example 309, N-(2-chloro-5-(trifluoromethyl)phenyl)-4-(pyrimidin-2-yloxy)piperidine-1-carboxamide]", "APC Flag 8 pt": "−"}]}]}
